The structures appear in SMILES notation.

The assay deals with T1, CDK12 complexed with Cyclin K (Homo sapiens, UniProt Q9NYV4).
T1 construct: GST (N); host or cells: baculovirus expression system
T1 sequence (Q9NYV4 whole entry): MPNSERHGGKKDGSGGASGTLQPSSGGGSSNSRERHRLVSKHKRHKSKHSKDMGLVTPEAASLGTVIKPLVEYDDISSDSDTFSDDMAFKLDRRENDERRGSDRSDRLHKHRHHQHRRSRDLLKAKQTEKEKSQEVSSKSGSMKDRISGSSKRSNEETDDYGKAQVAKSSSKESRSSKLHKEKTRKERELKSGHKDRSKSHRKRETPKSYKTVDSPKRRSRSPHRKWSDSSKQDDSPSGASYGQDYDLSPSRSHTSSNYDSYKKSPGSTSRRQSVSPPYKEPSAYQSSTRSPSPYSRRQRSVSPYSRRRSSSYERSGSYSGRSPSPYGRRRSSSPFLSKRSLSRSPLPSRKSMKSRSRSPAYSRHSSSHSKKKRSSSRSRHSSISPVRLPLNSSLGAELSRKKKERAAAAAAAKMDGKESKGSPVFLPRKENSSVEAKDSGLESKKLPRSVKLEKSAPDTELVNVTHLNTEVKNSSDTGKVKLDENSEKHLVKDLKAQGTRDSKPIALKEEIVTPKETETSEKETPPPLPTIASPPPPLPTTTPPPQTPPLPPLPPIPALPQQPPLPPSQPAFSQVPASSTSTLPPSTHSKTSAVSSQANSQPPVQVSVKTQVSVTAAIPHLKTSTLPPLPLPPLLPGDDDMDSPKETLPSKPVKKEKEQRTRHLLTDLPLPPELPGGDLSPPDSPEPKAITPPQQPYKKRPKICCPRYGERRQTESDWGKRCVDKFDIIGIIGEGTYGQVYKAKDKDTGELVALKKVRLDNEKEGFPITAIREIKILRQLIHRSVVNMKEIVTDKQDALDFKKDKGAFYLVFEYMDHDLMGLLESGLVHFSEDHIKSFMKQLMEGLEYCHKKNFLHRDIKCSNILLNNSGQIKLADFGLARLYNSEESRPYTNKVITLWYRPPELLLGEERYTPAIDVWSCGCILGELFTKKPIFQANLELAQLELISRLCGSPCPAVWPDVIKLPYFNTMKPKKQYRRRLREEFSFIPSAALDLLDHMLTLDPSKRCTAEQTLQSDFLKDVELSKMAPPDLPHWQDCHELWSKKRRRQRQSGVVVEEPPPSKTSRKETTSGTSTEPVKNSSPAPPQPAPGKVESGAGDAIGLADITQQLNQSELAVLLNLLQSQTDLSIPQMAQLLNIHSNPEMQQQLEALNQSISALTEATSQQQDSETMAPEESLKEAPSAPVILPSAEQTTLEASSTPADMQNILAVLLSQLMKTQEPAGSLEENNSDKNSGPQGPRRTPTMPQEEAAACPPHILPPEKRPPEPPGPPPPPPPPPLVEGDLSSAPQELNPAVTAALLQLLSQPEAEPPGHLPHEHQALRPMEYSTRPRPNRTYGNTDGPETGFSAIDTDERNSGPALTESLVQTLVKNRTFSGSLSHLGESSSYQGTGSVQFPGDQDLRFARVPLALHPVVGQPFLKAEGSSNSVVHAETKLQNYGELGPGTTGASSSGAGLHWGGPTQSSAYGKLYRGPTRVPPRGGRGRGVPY
T1 sequence (O75909 whole entry partner): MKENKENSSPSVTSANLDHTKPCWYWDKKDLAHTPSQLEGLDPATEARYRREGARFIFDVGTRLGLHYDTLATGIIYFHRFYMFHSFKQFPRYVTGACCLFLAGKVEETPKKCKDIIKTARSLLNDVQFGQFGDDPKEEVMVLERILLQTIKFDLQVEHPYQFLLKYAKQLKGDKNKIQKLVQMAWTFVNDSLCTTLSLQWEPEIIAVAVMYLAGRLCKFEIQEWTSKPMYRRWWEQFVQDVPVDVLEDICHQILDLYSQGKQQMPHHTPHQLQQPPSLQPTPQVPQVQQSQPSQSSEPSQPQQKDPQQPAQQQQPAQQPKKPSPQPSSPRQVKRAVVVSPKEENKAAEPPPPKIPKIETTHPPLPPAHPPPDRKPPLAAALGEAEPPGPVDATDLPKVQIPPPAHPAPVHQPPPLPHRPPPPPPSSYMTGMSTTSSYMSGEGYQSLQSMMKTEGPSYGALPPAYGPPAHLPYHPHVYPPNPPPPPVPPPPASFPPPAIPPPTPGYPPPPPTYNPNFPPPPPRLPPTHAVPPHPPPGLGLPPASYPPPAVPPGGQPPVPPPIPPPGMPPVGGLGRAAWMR
As to the kind of experiment: CDK enzymatic assay (HTRF, LANCE Ultra kinase assay). It is filed as biochemical. Particulars: 60 minutes pre-incubation with compound; 1 mM ATP. How it is done: The following activity of the CDK enzymes in complex with their respective cyclins we assayed: CDK1 complexed with Cyclin B1; CDK2 complexed with Cyclin E1; CDK4 complexed with Cyclin D1; CDK6 complexed with Cyclin D1; CDK6 complexed with Cyclin D3; CDK9 complexed with Cyclin T1; CDK7 complexed with Cyclin H/MAT1; CDK2 complexed with Cyclin A2; CDK5 complexed with p35; CDK12 complexed with Cyclin K; CDK13 complexed with Cyclin K. These in vitro enzyme activity are assayed using homogeneous time-resolved energy transfer (HTRF), which measures phosphorylation of a peptide substrate. The LANCE® Ultra kinase assay (PerkinElmer) uses a ULight™-labeled EIF4E-binding protein 1 (THR37/46) peptide (DYSTTPGGTLFSTTPGTRI (SEQ ID NO: 1)) substrate and a Europium-labeled anti-phospho-4E-BP1 antibody (CDK2, CDK1, CDK4, CDK6, CDK9, CDK12, CDK13) or ULight™-labeled Myelin Basic Protein peptide (VTPRTPPP (SEQ ID NO: 2)) substrate and a Europium-labeled anti-phospho-MBP antibody (CDK7). Each CDK enzyme activity assays utilized human CDK co-expressed as N-terminal GST-tagged protein with its full length cyclin partner using a baculovirus expression system.
Enzyme was pre-incubated with compounds for 30 minutes (CDK1,2,4,6,9) or 60 minutes (CDK7, CDK12, CDK13) prior to addition of ATP and Ulight-peptide (1 mM and 50 nM final, respectively), in assay buffer containing 50 mM HEPES pH 7.5, 1 mM EGTA, 10 mM MgCl2, 2 mM DTT, 0.05 mg/mL BSA, and 0.01% Tween 20. The reaction was then incubated for 60-90 minutes at room temperature. The reactions were stopped by the addition of EDTA and Europium labeled antibody, for a final concentration of 15 mM and 1.0-1.5 nM, respectively. HTRF signals were read after 15-120 minutes. A ratio of fluorescence transferred to the labeled substrate (665 nm) relative to fluorescence of the Europium donor (620 nm) represents the extent of phosphorylation. Ratios for treated wells were normalized to DMSO only (100% activity) and no enzyme (0% activity) controls. Normalized data was analyzed using a three or four parameter dose response curve to determine IC50 for each compound and are shown in Table A. Control reference inhibitors were included on each plate.
Background: TR-FRET usually uses a lanthanide donor and a delayed reading to cut background.
In the case of `C=CC(=O)Nc1ccc(C(=O)N2CC[C@@H](Nc3nc4cc(C)c(-c5cn[nH]c5)cn4n3)C2)cc1` [Example 24, (R)-N-(4-(3-((7-Methyl-6-(1H-pyrazol-4-yl)-[1,2,4]triazolo[1,5-a]pyridin-2-yl)amino)pyrrolidine-1-carbonyl)phenyl)acrylamide], the IC50 was 50 to 500 nM.
`C=CC(=O)N(C)c1ccc(C(=O)N2CC[C@@H](Nc3nc4ccc(-c5cn[nH]c5)c(C(C)C)n4n3)C2)cc1` [Example 25, (R)-N-(4-(3-((5-Isopropyl-6-(1H-pyrazol-4-yl)-[1,2,4]triazolo[1,5-a]pyridin-2-yl)amino)pyrrolidine-1-carbonyl)phenyl)-N-methylacrylamide]: the IC50 is less than 50 nM.
As for `C=C(F)C(=O)Nc1ccc(C(=O)N2CC[C@@H](Nc3nc4ccc(-c5cn[nH]c5)c(C(C)C)n4n3)C2)cc1` [Example 26, (R)-2-Fluoro-N-(4-(3-((5-isopropyl-6-(1H-pyrazol-4-yl)-[1,2,4]triazolo[1,5-a]pyridin-2-yl)amino)pyrrolidine-1-carbonyl)phenyl)acrylamide], the IC50 was less than 50 nM.
In the case of `C=CC(=O)Nc1ccc2sc(N3CCC[C@@H](Nc4nc5ccc(-c6cn[nH]c6)c(C(C)C)n5n4)C3)nc2c1` [Example 27, (R)-N-(2-(3-((5-Isopropyl-6-(1H-pyrazol-4-yl)-[1,2,4]triazolo[1,5-a]pyridin-2-yl)amino)piperidin-1-yl)benzo[d]thiazol-5-yl)acrylamide], the IC50 was less than 50 nM.
For the molecule `C=CC(=O)Nc1ccc2c(c1)nc(N1CCC[C@@H](Nc3nc4ccc(-c5cn[nH]c5)c(C(C)C)n4n3)C1)n2C` [Example 28, (R)-N-(2-(3-((5-Isopropyl-6-(1H-pyrazol-4-yl)-[1,2,4]triazolo[1,5-a]pyridin-2-yl)amino)piperidin-1-yl)-1-methyl-1H-benzo[d]imidazol-5-yl)acrylamide], the IC50 was less than 50 nM.
Under `C=CC(=O)Nc1ccc2sc(N3CCC[C@@H](Nc4nc5ccc(-c6cn[nH]c6)c(C)n5n4)C3)nc2c1` [Example 29, (R)-N-(2-(3-((5-Methyl-6-(1H-pyrazol-4-yl)-[1,2,4]triazolo[1,5-a]pyridin-2-yl)amino)piperidin-1-yl)benzo[d]thiazol-5-yl)acrylamide] stands less than 50 nM; under `C=CC(=O)Nc1ccc(C(=O)N2CC[C@@H](Nc3nc4ccc(-c5cn[nH]c5)c(C(F)(F)F)n4n3)C2)cc1` [Example 30, (R)-N-(4-(3-((6-(1H-Pyrazol-4-yl)-5-(trifluoromethyl)-[1,2,4]triazolo[1,5-a]pyridin-2-yl)amino)pyrrolidine-1-carbonyl)phenyl)acrylamide], less than 50 nM; under `C=C(F)C(=O)Nc1ccc(C(=O)N2CC[C@@H](Nc3nc4cc(-c5cn[nH]c5)ccn4n3)C2)cc1` [Example 31, (R)-N-(4-(3-((7-(1H-Pyrazol-4-yl)-[1,2,4]triazolo[1,5-a]pyridin-2-yl)amino)pyrrolidine-1-carbonyl)phenyl)-2-fluoroacrylamide], less than 50 nM.
`C=C(F)C(=O)Nc1ccc(C(=O)N2CC[C@@H](Nc3nc4c(C)c(-c5cn[nH]c5)ccn4n3)C2)cc1` [Example 32, (R)-2-Fluoro-N-(4-(3-((8-methyl-7-(1H-pyrazol-4-yl)-[1,2,4]triazolo[1,5-a]pyridin-2-yl)amino)pyrrolidine-1-carbonyl)phenyl)acrylamide]: the IC50 was less than 50 nM.
Regarding `CC#CC(=O)Nc1ccc(C(=O)N2CC[C@@H](Nc3nc4c(C)c(-c5cn[nH]c5)ccn4n3)C2)cc1` [Example 33, (R)-N-(4-(3-((8-Methyl-7-(1H-pyrazol-4-yl)-[1,2,4]triazolo[1,5-a]pyridin-2-yl)amino)pyrrolidine-1-carbonyl)phenyl)but-2-ynamide], the IC50 is less than 50 nM.
Under `C=CC(=O)Nc1ccc2c(c1)C(=O)N([C@H]1CCC[C@@H](Nc3nc4ccc(-c5cn[nH]c5)c(C(F)(F)F)n4n3)C1)C2` [Example 34, N-(2-((1S,3R)-3-((6-(1H-pyrazol-4-yl)-5-(trifluoromethyl)-[1,2,4]triazolo[1,5-a]pyridin-2-yl)amino)cyclohexyl)-3-oxoisoindolin-5-yl)acrylamide] stands less than 50 nM.
On to `C=CC(=O)Nc1ccc2sc(N3CCC[C@@H](Nc4nc5ccc(-c6cn[nH]c6)c(C(F)(F)F)n5n4)C3)nc2c1` [Example 35, (R)-N-(2-(3-((6-(1H-pyrazol-4-yl)-5-(trifluoromethyl)-[1,2,4]triazolo[1,5-a]pyridin-2-yl)amino)piperidin-1-yl)benzo[d]thiazol-5-yl)acrylamide], for which the IC50 was less than 50 nM.
Under `C=CC(=O)Nc1ccc2c(c1)nc(N1CCC[C@@H](Nc3nc4ccc(-c5cn[nH]c5)c(C(F)(F)F)n4n3)C1)n2C` [Example 36, (R)-N-(2-(3-((6-(1H-pyrazol-4-yl)-5-(trifluoromethyl)-[1,2,4]triazolo[1,5-a]pyridin-2-yl)amino)piperidin-1-yl)-1-methyl-1H-benzo[d]imidazol-5-yl)acrylamide] stands less than 50 nM; under `C=CC(=O)Nc1cnc(N2CCC[C@@H](Nc3nc4ccc(-c5cn[nH]c5)c(C(C)C)n4n3)C2)c(C)c1` [Example 37, (R)-N-(6-(3-((5-isopropyl-6-(1H-pyrazol-4-yl)-[1,2,4]triazolo[1,5-a]pyridin-2-yl)amino)piperidin-1-yl)-5-methylpyridin-3-yl)acrylamide], less than 50 nM.
Under `C=CC(=O)Nc1cnc(N2CCC[C@@H](Nc3nc4ccc(-c5cn[nH]c5)c(C(F)(F)F)n4n3)C2)c(C)c1` [Example 38, (R)-N-(6-(3-((6-(1H-pyrazol-4-yl)-5-(trifluoromethyl)-[1,2,4]triazolo[1,5-a]pyridin-2-yl)amino)piperidin-1-yl)-5-methylpyridin-3-yl)acrylamide] stands less than 50 nM.

Usually IC50 stands for the point on the concentration scale where inhibition reaches its midpoint.

The record behind these values is US12084453B2, “Bicyclic amines as CDK12 inhibitors” (Incyte Corporation, priority 2021, dated 2024).
